Data set [1] deals with A549 cells. Kind of data set: Western blot p-ERK and p-p38. It is filed as cell-based, human. The protocol: (§1) For western-blotting in A375, A549 and MC-F7 cell lines, the detailed method was described in ref.[18] […] For western-blot in selected CRC cell lines, the cells were collected after treatment for indicated time and washed twice with cold PBS. Then cells were lysed in 1% Triton lysis buffer (50 mmol/L Tris-HCl, pH 7.4, 10 mmol/L EDTA, 100 mmol/L NaF, 150 mmol/L NaCl, 1% Triton X-100, 1 mmol/L PMSF 1 mmol/L Na3VO4 and 2 μg/mL aprotinin). After sonication and centrifugation, samples were quantified with the Lowry method. Next, all the protein samples were boiled at 95 °C for 5 min with 3× sampling buffer. After that, all the lysate samples were resolved by SDS polyacrylamide gel electrophoresis (SDS-PAGE) and followed by western blotting which means electronically transferred to nitrocellulose membranes. After blocking with 5% skim milk in TBST buffer (10 mM Tris-HCl pH 7.4, 150 mM NaCl, 0.1% Tween 20) at room temperature for 1 h, the blots were incubated with indicated antibodies shaking for 2 h, then overnight at 4 °C. Then the blots were washed four times with TBST buffer, and then incubated with secondary antibodies for 30 min at room temperature. After washing for another four times, the protein bands were detected with enhanced chemiluminescence reagent (SuperSignal Western Pico Chemiluminescent Substrate; Pierce, Rockford, IL, USA) and visualised with the Electrophoresis Gel Imaging Analysis System (DNR Bio-Imaging Systems, Jerusalem, Israel).
(§2) Cells were incubated with DMSO or AZ304 for 75 min and p-ERK levels were determined using a p-ERK antibody based ELISA. […] Cells were incubated with DMSO or AZ304 (±EGF) for 75 min and p-ERK levels were determined using a p-ERK antibody based ELISA. […] (A375: BRAF V600E, A549: RAS MT; MC-F7: BRAF/RAS WT)
For orientation: Immunoblotting shows a protein as a band on a membrane.

Data set [2] deals with MC-F7 cells. Kind of data set: Western blot p-ERK and p-p38. It is filed as cell-based, human. Conditions: MC-F7 (BRAF/RAS WT). On the procedure:
as §1, §2

Data set [3] relates to RKO xenografts. Kind of data set: Xenograft study (tumour growth, immunohistochemistry). Format: in vivo, athymic BALB/c nude mice. On the procedure: (§3) All in vivo experiments were performed in accordance with Institutional Review Board of China Medical University guidelines. Female 4–6 weeks old athymic BALB/c nude mice were purchased from Shanghai SLAC Laboratory Animal Centre (Shanghai, China). RKO/Caco-2 cells (1 × 10^7) in 200 μl PBS were injected subcutaneously into the right scapular region of mice. […] Tumours were measured with a caliper every 2 days, so did body weights. Tumour volume was calculated using the formula V = 1/2 (width^2 × length). Mice were terminated by CO2 inhalation when the tumour diameters reached 1.5 cm, according to the protocol filed with the Guidance of Institutional Animal Care and Use Committee of China Medical University.
(§4) Tumours were formalin-fixed, paraffin-embedded and prepared as described in our previous study for staining with haematoxylin and eosin.[19] […] The staining was evaluated by scanning the entire tissue specimen under low magnification (×10) and confirmed under high magnification (×20 and ×40). The protein expression was visualised and classified based on the percentage of positive cells and the intensity of staining. From each section, five visual fields were randomly selected. The degree of protein expression was based on the percentage of positive cells and the intensity of staining. Staining intensity was scored as 0 (no staining), 1 (low staining), 2 (intermediate staining), and 3 (high staining). For the staining area, ≤5%, 5–25%, 26–50, 51–75% >75% were recorded as 0, 1, 2, 3 and 4 points, respectively. Histological score = staining intensity × staining area. A score 0 was classified as negative (−), 1–4 points as weakly positive (+), 6–12 points as a strong positive (++). Final scores were assigned by two independent pathologists.
(§5) Student’s t-tests were used for statistical analyses. Data are plotted as mean ± SD. […] Tumours were harvested 4 h after dosing on day 10

Data set [4] deals with Caco-2 xenografts. Described as above. It is filed as in vivo, athymic BALB/c nude mice. The protocol:
as §3, §4, §5

A short description of data set [5]: Xenograft study, animal health and body weight. Format: in vivo. Conditions: RKO and Caco-2 xenograft mice, 10 days treatment. The protocol:
as §3
Supplementary Figure 2 Weights of xenografts from RKO and Caco-2 cells was measured every 2 days.

For data set [6], the system named is DiFi cells. Put plainly: MTT proliferation assay. It is filed as cell-based. Conditions: Homo sapiens, BRAF WT, KRAS WT. On the procedure:
(§6) The proliferation assays in selected colorectal cancer cell lines were measured using a 3-(4,5-dimethyl thiazol-2-yl)-2,5-diphenyl tetrazolium bromide (MTT) assay. First of all, cultured cells were seeded into 96-well plates (2000–5000 cells per well). After incubation for 24 h, the cells were pretreated with DMSO or AZ304 for 1 h. […] Cells were incubated for a further 48 or 72 h. For EGF stimulating assay, cells were incubated in reduced serum medium overnight and then treated with AZ304 or AZ304 + EGF (20 ng/ml) for 72 h. Twenty microliter of MTT solution (5 mg/ml) was added to each well followed by 4 h incubation at 37 °C. The cell culture medium was removed and the cells were lysed in 200 μl dimethylsulphoxide (DMSO) and the results were measured using a microplate reader (Model 550, Bio-Rad Laboratories, Hercules, CA, USA).
(Tetrazolium dyes change colour on reduction, which living cells bring about.)

In data set [7] the test system is RKO cells. Put plainly: MTT proliferation assay. Format: cell-based. To be noted: Homo sapiens, BRAF MT (V600E), KRAS WT. On the procedure: as §6
The subject of data set [8] is HT-29 cells. Kind of data set: MTT proliferation assay. Conditions: Homo sapiens, HT-29, BRAF MT (V600E), KRAS WT. It is filed as cell-based. The protocol: as §6
Data set [9] has as its system Caco-2 cells. Kind of data set: MTT proliferation assay. It is filed as cell-based. To be noted: Homo sapiens, Caco-2, BRAF WT, KRAS WT. The protocol: as §6
Where [10] appears, read: RKO xenograft tumours, day 10, 4 h after dosing, score = staining intensity × staining area.
Setting [11] is: Caco-2 xenograft tumours, day 10, 4 h after dosing, score = staining intensity × staining area.
[12] abbreviates: 48 h, read-out: GI50 (μM) of AZ304 48 h.
The mark [13] stands for this setting: 72 h, read-out: GI50 (μM) of AZ304 72 h.

The structures appear in SMILES notation. Read-outs that look alike come from different tables or passages of the source.

Broadly, the GI50 is the concentration that inhibits growth by half. On to `COc1ccc2c(Nc3cc(NC(=O)c4cccc(C(C)(C)C#N)c4)ccc3C)ncnc2c1` [AZ304], for which the “effect on p-p38” value in data set [1] (A549 (RAS MT), 75 min) is given as “potently inhibited p-p38”; in data set [2] (75 min), “potently inhibited p-p38”. For the same compound, the “effect on p-ERK” value in data set [1] (A549 (wild type BRAF, RAS MT), 75 min, 0.1, 1, 10 and 100 fold of A375 p-ERK EC50) was “concentration dependent reduction of p-ERK”; in [2] (75 min, 0.1, 1, 10 and 100 fold of A375 p-ERK EC50), “concentration dependent reduction of p-ERK”. Besides, the figures for the Ki67 histological score in data set [3] (setting [10]) and in [4] (setting [11]) were 4.8 ±1.10 and 3.2 ±0.84, respectively. Also, the p-AKT histological score came out at 4.2 ±2.28 in data set [3] (setting [10]) and 6.8 ±1.10 in [4] (setting [11]). In addition, the figures for the p-EGFR histological score in data set [3] (setting [10]) and in data set [4] (setting [11]) were 10 ±1.87 and 10.6 ±1.95, respectively. In addition, the p-ERK histological score stood at 3.2 ±1.10 in data set [3] (setting [10]) and 4.8 ±1.10 in data set [4] (setting [11]). Moreover, the tumour growth entry is given as “reduced tumour growth” in data set [3] (RKO xenograft, AZ304 10 mg/kg oral twice daily, Cetuximab 40 mg/kg i.p. twice per week, 10 days, vs vehicle) and “reduced tumour growth” in [4] (Caco-2 xenograft, AZ304 10 mg/kg oral twice daily, Cetuximab 40 mg/kg i.p. twice per week, 10 days, vs vehicle). In [5], the “tolerability (animal health, body weight)” value is “without obvious toxicity”. Also, the 50% growth inhibitory concentration (GI50) is 4.99 µM in [6] (setting [12]); 0.635 µM in [6] (setting [13]); 4.54 µM in [7] (setting [12]); 0.503 µM in data set [7] (setting [13]); 3.9 µM in [8] (setting [12]); 0.389 µM in [8] (setting [13]). Further, the GI50 came to 1.76 µM in data set [9] (setting [12]) and 0.377 µM in data set [9] (setting [13]).

Source of the values: PMC5988692, “AZ304, a novel dual BRAF inhibitor, exerts anti-tumour effects in colorectal cancer independently of BRAF genetic status” (British Journal of Cancer, 2018).
